{
  "source": "patent US9957428B2",
  "about": "(priority 2013, dated 2018)",
  "key": {"[1]": {"type": "physicochemical"}, "[2]": {"type": "physicochemical", "remark": "listed apart in the source"}},
  "note": "Like-named read-outs stand apart in the source and are kept apart here.",
  "data": [
    {"smiles": "CCOC(F)(C(F)(F)C(F)(F)C(F)(F)F)C(F)(C(F)(F)F)C(F)(F)F", "note": "(stereo not shown) [Novec 7500]", "values": [
      {"measurement": "Cp", "setting": "[1]; Temperature 15 ° C.", "result": "1.08 J/(g · ° C.)"},
      {"measurement": "Cp", "setting": "[1]; Temperature 20 ° C.", "result": "1.09 J/(g · ° C.)"},
      {"measurement": "Cp", "setting": "[1]; Temperature 25 ° C.", "result": "1.10 J/(g · ° C.)"},
      {"measurement": "Cp", "setting": "[1]; Temperature 30 ° C.", "result": "1.11 J/(g · ° C.)"},
      {"measurement": "Cp", "setting": "[1]; Temperature 35 ° C.", "result": "1.12 J/(g · ° C.)"},
      {"measurement": "Cp", "setting": "[1]; Temperature 40 ° C.", "result": "1.13 J/(g · ° C.)"}
    ]},
    {"smiles": "FC(=C(F)C(F)(F)F)N(C(F)(F)F)C(F)(F)F", "note": "[Preparatory Example 1, 1,2,3,3,3-pentafluoro-N,N-bis(trifluoromethyl)prop-1-en-1-amine]", "values": [
      {"measurement": "Cp", "setting": "[1]; Temperature 15 ° C.", "result": "1.25 J/(g · ° C.)"},
      {"measurement": "Cp", "setting": "[1]; Temperature 20 ° C.", "result": "1.27 J/(g · ° C.)"},
      {"measurement": "Cp", "setting": "[1]; Temperature 25 ° C.", "result": "1.28 J/(g · ° C.)"},
      {"measurement": "Cp", "setting": "[1]; Temperature 30 ° C.", "result": "1.30 J/(g · ° C.)"},
      {"measurement": "Cp", "setting": "[1]; Temperature 35 ° C.", "result": "1.32 J/(g · ° C.)"},
      {"measurement": "Cp", "setting": "[1]; Temperature 40 ° C.", "result": "1.34 J/(g · ° C.)"},
      {"measurement": "Kinematic Viscosity", "setting": "[2]; Temp 0.0 °C", "result": 0.91, "unit": "cS"},
      {"measurement": "Kinematic Viscosity", "setting": "[2]; Temp 25.0 °C", "result": 0.58, "unit": "cS"},
      {"measurement": "Kinematic Viscosity", "setting": "[2]; Temp 30.0 °C", "result": 0.54, "unit": "cS"},
      {"measurement": "Kinematic Viscosity", "setting": "[2]; Temp 40.0 °C", "result": 0.48, "unit": "cS"},
      {"measurement": "Kinematic Viscosity", "setting": "[2]; Temp 50.0 °C", "result": 0.42, "unit": "cS"},
      {"measurement": "Kinematic Viscosity", "setting": "[2]; Temp 60.0 °C", "result": 0.38, "unit": "cS"},
      {"measurement": "Vapor Pressure at 68° F.(20° C.)", "result": 50.9, "unit": "mm Hg"}
    ]},
    {"smiles": "F/C(=C(/F)C(F)(F)F)N1C(F)(F)C(F)(F)OC(F)(F)C1(F)F", "note": "[Preparatory Example 2, 2,2,3,3,5,5,6,6-octafluoro-4-(1,2,3,3,3-pentafluoroprop-1-enyl)morpholine]", "values": [
      {"measurement": "Cp", "setting": "[1]; Temperature 15 ° C.", "result": "1.09 J/(g · ° C.)"},
      {"measurement": "Cp", "setting": "[1]; Temperature 20 ° C.", "result": "1.10 J/(g · ° C.)"},
      {"measurement": "Cp", "setting": "[1]; Temperature 25 ° C.", "result": "1.11 J/(g · ° C.)"},
      {"measurement": "Cp", "setting": "[1]; Temperature 30 ° C.", "result": "1.12 J/(g · ° C.)"},
      {"measurement": "Cp", "setting": "[1]; Temperature 35 ° C.", "result": "1.13 J/(g · ° C.)"},
      {"measurement": "Cp", "setting": "[1]; Temperature 40 ° C.", "result": "1.14 J/(g · ° C.)"}
    ]},
    {"smiles": "FC(=C(F)C(F)(F)F)N(C(F)(F)F)C(F)(F)C(F)(F)F", "note": "[Preparatory Example 5, 1,2,3,3,3-pentafluoro-N-(1,1,2,2,2-pentafluoroethyl)-N-(trifluoromethyl)prop-1-en-1-amine]", "values": [
      {"measurement": "Cp", "setting": "[1]; Temperature 15 ° C.", "result": "1.18 J/(g · ° C.)"},
      {"measurement": "Cp", "setting": "[1]; Temperature 20 ° C.", "result": "1.20 J/(g · ° C.)"},
      {"measurement": "Cp", "setting": "[1]; Temperature 25 ° C.", "result": "1.21 J/(g · ° C.)"},
      {"measurement": "Cp", "setting": "[1]; Temperature 30 ° C.", "result": "1.22 J/(g · ° C.)"},
      {"measurement": "Cp", "setting": "[1]; Temperature 35 ° C.", "result": "1.23 J/(g · ° C.)"},
      {"measurement": "Cp", "setting": "[1]; Temperature 40 ° C.", "result": "1.24 J/(g · ° C.)"}
    ]}
  ]
}
